Broadly, the Km is the substrate concentration at which the rate is half of its maximum.

SMILES strings stand for the structures. Substitutions are numbered along the chain they refer to. “Also recorded” adds a separate entry of the source.

The record followed here is patent US20130253037A1, “AURORA A KINASE EFFECTORS” (PURDUE RESEARCH FOUNDATION, priority 2010, published 2013).

The subject of one experiment is MDA cells. The experiment can be described thus: Western blot of LIMK2 and Aurora A levels after MLN8237, MDA cells. The class given is cell-based. The method, then: FIG. 11A-11F Aurora A and LIMK2 positive feedback loop is a common feature in several cancers. […] PC3 cells were transfected with scrambled shRNA (lane 1) or Aurora A-shRNA2 (lane 2) and Aurora A and LIMK2 levels analyzed after 30 h. […] FIG. 11C is a western blot showing that Aurora A ablation in HCT116 and PaCa2 cells depletes LIMK2. HCT116 and PaCa2 cells were transfected with scrambled shRNA (lanes 1 and 3) or Aurora A-shRNA2 (lanes 2 and 4) and Aurora A and LIMK2 levels analyzed. […] FIG. 11E is a western blot showing that LIMK2 acts as a pharmacodynamic biomarker for Aurora A kinase activity. Aurora A was inhibited using 0.5 μM MLN8237 in MDA cells and Aurora A, LIMK2 and actin levels analyzed. […] MDA cells were incubated with MLN8237 (0.5 μM and 1 μM) or the vehicle (DMSO). After 48 h, cells were analyzed using MTT assay. p*<0.05, when compared to the control.
AA-MDA and AA-as7 MDA cells were treated with either DMSO or 1-NM-PP1 (250 nM) for 12 h, followed by cell lysis. For MLN8237 experiment, MDA cells were treated with 1 μM MLN8237 for 12 h.
Cells were harvested and lysed in modified RIPA buffer, supplemented with protease inhibitors. Equal amounts of cell extracts were then used to conduct western blot.
Over a dozen Aurora A targeted drugs are in clinical trials. […] Aurora A was inhibited using MLN8237 and LIMK2 levels analyzed.
(A western blot detects proteins with antibodies after separation by electrophoresis.)

In experiment [1] the test system is HA-tagged LIMK2 in MDA cells. The experiment can be described thus: Gel shift / Western blot of HA-tagged LIMK2 and mutants in MDA cells after MLN8237. The class given is cell-based. Particulars: additional 12 h. As to the method:
FIGS. 8A-8D. Aurora A phosphorylates LIMK2 at 5283, T494 and T505 which increases its protein stability. […] 6-His-tagged wild type, (S283A) LIMK2, (T494A) LIMK2 and (T505A) LIMK2 mutants were phosphorylated using Aurora A/TPX2 and [^32P] ATP for 15 min and the products were separate by electrophoresis. […] Nucleic acids sequence encoding HA-tagged (S283A) LIMK2, (T494A) LIMK2, and (T505A) LIMK2 were transfected in MDA cells. After 30 h, cells were incubated with 0.5 μM MLN8237 for additional 16 h. Gel shift assay was performed using 10% SDS PAGE. Protein levels were analyzed using HA and actin antibodies. FIG. 8C is a western blot showing Aurora A promotes LIMK2 stability by phosphorylating S283, T494 and T505. Nucleic acids sequences encoding HA-tagged wt LIMK2, (S283A, T494A) LIMK2 (2A) and (S283A, T494A, T505A) LIMK2 (3A) were transfected in MDA cells. After 30 h, protein levels were analyzed using Aurora A, HA and actin antibodies. […] Wild type, double (2A) and triple (3A) mutants of LIMK2 were transfected in MDA cells along with 6-His Ubiquitin and LIMK2 ubiquitination analyzed.
Aurora A inhibits LIMK2 degradation by directly phosphorylating it at Ser283, Thr494 and Thr505: Since Aurora A regulates LIMK2 by phosphorylation (FIG. 6A), we set to identify Aurora A-mediated phosphorylation sites on LIMK2. Aurora A preferentially phosphorylates R/K/N-R-X-S/T-B, where B denotes any hydrophobic residue except Pro (Ferrari et al. (2005) Biochem. J. 390, 293-302). […] S283A, T494A and T505A LIMK2 alleles were generated and their phosphorylation analyzed in vitro. Aurora A phosphorylates LIMK2 at all these sites (FIG. 8A). […]
To confirm these findings, HA-tagged LIMK2 double mutant (S283A, T494A) and HAtagged LIMK2 triple mutant (S283A, T494A, T505A) were generated and transfected in MDA cells. […] After 24 h, Aurora A was inhibited using MLN8237 for an additional 12 h, and LIMK2 levels analyzed using HA antibody.
(In EMSA bound probe runs differently from free probe, usually more slowly.)

The target in experiment [2] is Aurora B-as7 (L138V, L154G-AB) kinase (Homo sapiens, UniProt Q96GD4, L138V/L154G). The experiment can be described thus: In vitro kinase assay with AB-as7. It is filed as biochemical. Conditions: phosphodonor as labelled.
Sequence of Aurora B-as7 (L138V, L154G-AB) kinase (Q96GD4 whole entry L138V/L154G): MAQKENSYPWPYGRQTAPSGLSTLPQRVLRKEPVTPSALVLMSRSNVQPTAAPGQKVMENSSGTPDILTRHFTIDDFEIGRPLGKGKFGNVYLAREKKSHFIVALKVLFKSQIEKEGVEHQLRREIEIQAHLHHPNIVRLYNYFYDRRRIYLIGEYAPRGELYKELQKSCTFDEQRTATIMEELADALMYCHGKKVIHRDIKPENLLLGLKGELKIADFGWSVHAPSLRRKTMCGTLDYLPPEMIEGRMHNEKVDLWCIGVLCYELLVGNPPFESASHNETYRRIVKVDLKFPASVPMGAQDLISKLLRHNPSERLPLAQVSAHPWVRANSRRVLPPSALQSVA
Experiment [3] concerns the target T1, AA-as7 kinase (Aurora A LI85V, L201G) (Mus musculus, UniProt P97477, L185V/L201G).
T1 construct: the Aurora A mutant is the double mutant Aurora A (AA-as7); 6-His; made in house; host or cells: Sf9 insect cells (baculovirus, Bac-to-Bac)
T1 sequence (P97477 1-395 L185V/L201G): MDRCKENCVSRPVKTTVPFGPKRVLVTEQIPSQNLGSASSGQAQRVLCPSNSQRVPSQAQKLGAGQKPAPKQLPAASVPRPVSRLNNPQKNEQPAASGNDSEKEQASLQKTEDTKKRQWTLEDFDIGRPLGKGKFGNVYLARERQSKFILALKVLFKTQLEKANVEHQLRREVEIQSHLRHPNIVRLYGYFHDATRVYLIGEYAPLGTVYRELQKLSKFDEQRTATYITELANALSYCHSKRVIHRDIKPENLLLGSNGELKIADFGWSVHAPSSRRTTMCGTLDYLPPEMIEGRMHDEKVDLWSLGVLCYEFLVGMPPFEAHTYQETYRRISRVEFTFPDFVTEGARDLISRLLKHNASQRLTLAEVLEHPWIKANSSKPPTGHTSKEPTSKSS
The experiment can be described thus: In vitro kinase assay with AA-as7 and TPX2. It is filed as biochemical, murine. Conditions: AA-as7; phosphodonor as labelled. The method, then:
(§1) For in vitro labeling, Aurora A/TPX2 complex (on beads) was pre-incubated with 10 μM cold ATP for 10 min to activate the kinase. The beads were washed twice with kinase buffer, and then subjected to kinase assay with 2-5 μg of recombinant protein (such as PHLDA) and 1 μCi of [γ-^32P] ATP. Reactions were terminated by adding SDS sample buffer, separated by SDS-PAGE gel, transferred to PVDF membrane and exposed to Biomax MS film. Aurora A kinase assays were conducted using 1 μCi of [γ-^32P] ATP and 3 μg of Aurora A substrate peptide in a final volume of 30 μl at 30° C. as reported before (Sun, et al, (2008a) Mol. Biol. Cell 19, 3052-3069).
(§2) IC50 values were determined by fitting the data to a sigmoidal dose response curve using GraphPad Prism 4.0 software. Km and Vmax values were derived from the assay described above using various concentrations of AA peptide substrate and ATP. Km and Vmax values were determined using GraphPad Prism 4.0 software.

The next experiment addresses wild-type Aurora B (Homo sapiens, UniProt Q96GD4). The experiment can be described thus: In vitro kinase assay with wild-type Aurora B. The class given is biochemical.
For another experiment, the target named is T2, wild-type Aurora A (Mus musculus, UniProt P97477).
T2 construct: 6-His; made in house; host or cells: Sf9 insect cells (baculovirus, Bac-to-Bac)
T2 sequence (P97477 1-395): T1 sequence (P97477 1-395 L185V/L201G) with V185L, G201L
T2 sequence (Q9ULW0 1-747 partner): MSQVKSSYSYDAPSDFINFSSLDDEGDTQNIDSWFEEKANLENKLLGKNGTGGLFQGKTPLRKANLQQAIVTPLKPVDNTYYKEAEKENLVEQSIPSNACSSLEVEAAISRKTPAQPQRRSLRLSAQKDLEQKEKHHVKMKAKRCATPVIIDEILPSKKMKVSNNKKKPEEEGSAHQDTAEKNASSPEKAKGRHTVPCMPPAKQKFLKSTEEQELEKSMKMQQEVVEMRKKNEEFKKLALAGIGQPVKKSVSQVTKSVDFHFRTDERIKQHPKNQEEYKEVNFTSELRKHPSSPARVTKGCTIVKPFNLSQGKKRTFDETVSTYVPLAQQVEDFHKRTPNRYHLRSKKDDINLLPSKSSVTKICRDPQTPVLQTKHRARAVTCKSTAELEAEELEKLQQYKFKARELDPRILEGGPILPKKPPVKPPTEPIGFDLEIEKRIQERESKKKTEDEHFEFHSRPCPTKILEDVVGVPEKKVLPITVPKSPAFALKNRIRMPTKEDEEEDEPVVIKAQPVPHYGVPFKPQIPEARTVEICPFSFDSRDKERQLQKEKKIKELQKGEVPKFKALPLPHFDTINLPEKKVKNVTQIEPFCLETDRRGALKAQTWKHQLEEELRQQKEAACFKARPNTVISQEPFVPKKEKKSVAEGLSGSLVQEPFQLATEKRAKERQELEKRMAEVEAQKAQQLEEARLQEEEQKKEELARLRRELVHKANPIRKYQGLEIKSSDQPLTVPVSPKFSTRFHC
The experiment can be described thus: In vitro kinase assay with wild-type Aurora A and TPX2. It is filed as biochemical, murine. Conditions: wild-type Aurora A. As to the method: as §1, §2

Sequence of wild-type Aurora B (Q96GD4 whole entry): as the sequence (Q96GD4 whole entry L138V/L154G) above, with V138L, G154L counted along it

Take `COc1cc(Nc2ncc3c(n2)-c2ccc(Cl)cc2C(c2c(F)cccc2OC)=NC3)ccc1C(=O)O` [MLN8237]: in the experiment with MDA cells, the “Aurora A levels” value was “reduced” and the LIMK2 levels entry is reported as “depleted LIMK2 levels; also recorded: reduced”. In experiment [1], the “phospho-levels and protein levels of wt LIMK2 and (S283A, T494A) LIMK2” value is on record as “decreased”; the “phosphorylation level (top band) and overall protein level of LIMK2 single mutants (S283A, T494A, T505A)” value is given as “decreased”; the “protein and phospho-levels of LIMK2 triple mutant (S283A, T494A, T505A)” value is recorded as “remained unchanged”.

In the case of `Nc1ncnc2c1ncn2[C@@H]1O[C@H](COP(=O)(O)OP(=O)(O)OP(=O)(O)O)[C@@H](O)[C@H]1O` [ATP], the Kcat was 2.75 s⁻¹ in experiment [2], 54.2 s⁻¹ in experiment [3], 4.27 s⁻¹ at wild-type Aurora B and 31.3 s⁻¹ on wild-type Aurora A. The Km was found to be 30.4 µM in experiment [2], 17.7 µM in experiment [3], 23 µM at wild-type Aurora B and 16.2 µM on wild-type Aurora A. For the same compound, the Vmax in experiment [2] is recorded as 3.30 × 10^4; in experiment [3], 7.31 × 10^5; on wild-type Aurora B, 5.12 × 10^4; at wild-type Aurora A it was 4.24 × 10^5.
